Blank lines part the entries; values can stand above or below the molecule they belong to. Calls of active or inactive are those of the source. The calls are words filed in the database; no cut-off is given here.
Key:
[1] = biological target: T1, Inhibitor of nuclear factor kappa-B kinase subunit beta (Homo sapiens, UniProt O14920); test: Inhibition of phosphorylation of human recombinant Flag-tagged IKKbeta expressed in Sf21 cells after 1 hr by Kinase-Glo luminescent kinase assay
T1 sequence (O14920 whole entry): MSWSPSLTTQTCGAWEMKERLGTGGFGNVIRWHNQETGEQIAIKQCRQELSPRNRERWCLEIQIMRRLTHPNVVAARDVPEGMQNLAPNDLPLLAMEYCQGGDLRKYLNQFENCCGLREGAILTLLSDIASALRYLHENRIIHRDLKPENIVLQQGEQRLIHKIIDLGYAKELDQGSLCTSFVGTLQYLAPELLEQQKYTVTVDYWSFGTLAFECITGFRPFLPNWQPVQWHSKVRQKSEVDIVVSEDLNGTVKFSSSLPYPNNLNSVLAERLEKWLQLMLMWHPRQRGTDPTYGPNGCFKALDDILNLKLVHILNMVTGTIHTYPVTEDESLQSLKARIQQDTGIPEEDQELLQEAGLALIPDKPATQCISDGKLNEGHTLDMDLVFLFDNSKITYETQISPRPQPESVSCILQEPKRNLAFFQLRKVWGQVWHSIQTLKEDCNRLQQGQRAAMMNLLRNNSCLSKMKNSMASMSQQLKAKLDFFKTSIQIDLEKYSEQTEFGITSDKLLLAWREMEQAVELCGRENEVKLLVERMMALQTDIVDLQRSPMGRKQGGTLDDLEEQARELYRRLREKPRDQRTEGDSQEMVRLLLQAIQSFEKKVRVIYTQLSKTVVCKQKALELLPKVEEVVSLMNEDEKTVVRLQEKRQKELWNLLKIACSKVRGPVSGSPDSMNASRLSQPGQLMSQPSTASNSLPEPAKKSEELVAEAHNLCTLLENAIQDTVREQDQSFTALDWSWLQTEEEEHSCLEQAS

A549 = test: Cytotoxicity against human A549 cells after 48 hrs by MTT assay; assay type: functional, cell-based; conditions: A549, 48 h
[2] = Stability in simulated gastric fluid at pH 2 assessed as compound remaining measured at 5 mg/ml at 12 hrs by HPLC analysis; assay type: ADME; conditions: read-out: Stability
[3] = Metabolic stability in 80% human plasma assessed as compound remaining at 5 mg/ml at 120 mins by HPLC analysis; assay type: ADME, cell-free; conditions: read-out: Stability
[4] = Metabolic stability in 80% human plasma assessed as compound remaining at 5 mg/ml at 15 mins by HPLC analysis; assay type: ADME, cell-free; conditions: read-out: Stability
[5] = Stability in simulated gastric fluid at pH 2 assessed as compound remaining measured at 5 mg/ml at 8 hrs by HPLC analysis; assay type: ADME; conditions: read-out: Stability
[6] = Stability in simulated gastric fluid at pH 2 assessed as compound remaining measured at 5 mg/ml at 5 hrs by HPLC analysis; assay type: ADME; conditions: read-out: Stability
[7] = Metabolic stability in 80% human plasma assessed as compound remaining at 5 mg/ml at 60 mins by HPLC analysis; assay type: ADME, cell-free; conditions: read-out: Stability
[8] = Stability in simulated gastric fluid at pH 2 assessed as compound remaining measured at 5 mg/ml at 2 hrs by HPLC analysis; assay type: ADME; conditions: read-out: Stability
[9] = Metabolic stability in 80% human plasma assessed as compound remaining at 5 mg/ml at 30 mins by HPLC analysis; assay type: ADME, cell-free; conditions: read-out: Stability
[10] = biological target: T2, Inhibitor of nuclear factor kappa-B kinase subunit beta (Homo sapiens) (UniProt O14920); conditions: A549, 0.5 to 1 uM
T2 sequence (whole entry): T1 sequence (O14920 whole entry)
Description: Inhibition of TNFalpha-induced IKKbeta-mediated IkappaB degradation in human A549 cells compound treated for 8 hrs at 0.5 to 1 uM followed by TNFalpha stimulation measured after 30 mins by Western blot analysis relative to control

SMILES: CC(C)=CC(=O)O[C@@H]1CC(C)(C)C[C@H]2C3=CC[C@@H]4[C@@]5(C)CC[C@H](O)C(C)(C)[C@@H]5CC[C@@]4(C)[C@]3(C)CC[C@@]12C(=O)O [Reduced Lantadene B]
IC50 ([1]; sf21): 4240 nM
IC50 (A549): 430 nM

SMILES: CC(C)=CC(=O)O[C@@H]1CC(C)(C)C[C@H]2C3=CC[C@@H]4[C@@]5(C)CC[C@H](OC(=O)c6ccccc6F)C(C)(C)[C@@H]5CC[C@@]4(C)[C@]3(C)CC[C@@]12C(=O)O
IC50 (A549): 1960 nM

SMILES: CC(C)=CC(=O)O[C@@H]1CC(C)(C)C[C@H]2C3=CC[C@@H]4[C@@]5(C)CC[C@H](OC(=O)C(C)C)C(C)(C)[C@@H]5CC[C@@]4(C)[C@]3(C)CC[C@@]12C(=O)O
IC50 (A549): 2560 nM

SMILES: C/C=C(/C)C(=O)O[C@@H]1CC(C)(C)C[C@H]2C3=CC[C@@H]4[C@@]5(C)CC[C@H](OC(=O)C(C)C)C(C)(C)[C@@H]5CC[C@@]4(C)[C@]3(C)CC[C@@]12C(=O)O
IC50 (A549): > 10000 nM

SMILES: CC1(C)C[C@@H](O)[C@]2(C(=O)O)CC[C@]3(C)C(=CC[C@@H]4[C@@]5(C)CCC(=O)C(C)(C)[C@@H]5CC[C@]43C)[C@@H]2C1
IC50 (A549): > 10000 nM

SMILES: C/C=C(/C)C(=O)O[C@@H]1CC(C)(C)C[C@H]2C3=CC[C@@H]4[C@@]5(C)CC[C@H](OC(=O)CCC)C(C)(C)[C@@H]5CC[C@@]4(C)[C@]3(C)CC[C@@]12C(=O)O
IC50 (A549): > 10000 nM

SMILES: CC(C)C(=O)O[C@@H]1CC(C)(C)C[C@H]2C3=CC[C@@H]4[C@@]5(C)CCC(=O)C(C)(C)[C@@H]5CC[C@@]4(C)[C@]3(C)CC[C@@]12C(=O)O
IC50 (A549): > 10000 nM

SMILES: C/C=C(/C)C(=O)O[C@@H]1CC(C)(C)C[C@H]2C3=CC[C@@H]4[C@@]5(C)CC[C@H](OC(=O)c6ccc(Cl)cc6)C(C)(C)[C@@H]5CC[C@@]4(C)[C@]3(C)CC[C@@]12C(=O)O
IC50 (A549): 1320 nM

remaining at 12 h, 5 mg/ml [2]: 72.8%
IC50 [1]: 1540 nM
remaining at 2 h, 5 mg/ml [3]: 32.3%
remaining at 0.25 h, 5 mg/ml [4]: 70.2%
remaining at 8 h, 5 mg/ml [5]: 80.3%
remaining at 5 h, 5 mg/ml [6]: 86.5%
remaining at 1 h, 5 mg/ml [7]: 44.3%
remaining at 2 h, 5 mg/ml [8]: 92.2%
remaining at 0.5 h, 5 mg/ml [9]: 52.2%
SMILES: CC(C)=CC(=O)O[C@@H]1CC(C)(C)C[C@H]2C3=CC[C@@H]4[C@@]5(C)CC[C@H](OC(=O)c6ccc(Cl)cc6)C(C)(C)[C@@H]5CC[C@@]4(C)[C@]3(C)CC[C@@]12C(=O)O
IC50 (A549): 1120 nM

SMILES: C/C=C(/C)C(=O)O[C@@H]1CC(C)(C)C[C@H]2C3=CC[C@@H]4[C@@]5(C)CC[C@H](O)C(C)(C)[C@@H]5CC[C@@]4(C)[C@]3(C)CC[C@@]12C(=O)O [Reduced Lantadene A]
IC50 [1]: 2620 nM
IC50 (A549): 790 nM

SMILES: CCCC(=O)O[C@@H]1CC(C)(C)C[C@H]2C3=CC[C@@H]4[C@@]5(C)CCC(=O)C(C)(C)[C@@H]5CC[C@@]4(C)[C@]3(C)CC[C@@]12C(=O)O
IC50 (A549): > 10000 nM

SMILES: C/C=C(/C)C(=O)O[C@@H]1CC(C)(C)C[C@H]2C3=CC[C@@H]4[C@@]5(C)CC[C@H](OC(=O)c6cccc(F)c6)C(C)(C)[C@@H]5CC[C@@]4(C)[C@]3(C)CC[C@@]12C(=O)O
IC50 (A549): > 10000 nM

SMILES: CC(C)=CC(=O)O[C@@H]1CC(C)(C)C[C@H]2C3=CC[C@@H]4[C@@]5(C)CC[C@H](OC(=O)c6cccc(F)c6)C(C)(C)[C@@H]5CC[C@@]4(C)[C@]3(C)CC[C@@]12C(=O)O
IC50 (A549): 6860 nM

remaining at 12 h, 5 mg/ml [2]: 77.2%
IC50 [1]: 1360 nM
remaining at 2 h, 5 mg/ml [3]: 35.3%
remaining at 0.25 h, 5 mg/ml [4]: 70.4%
remaining at 8 h, 5 mg/ml [5]: 83.3%
remaining at 5 h, 5 mg/ml [6]: 88.2%
remaining at 1 h, 5 mg/ml [7]: 46.7%
remaining at 2 h, 5 mg/ml [8]: 93%
inhibition [10]: Active
remaining at 0.5 h, 5 mg/ml [9]: 53.2%
SMILES: COc1cccc(C(=O)O[C@H]2CC[C@]3(C)[C@H]4CC=C5[C@@H]6CC(C)(C)C[C@@H](OC(=O)C=C(C)C)[C@]6(C(=O)O)CC[C@@]5(C)[C@]4(C)CC[C@H]3C2(C)C)c1
IC50 (A549): 980 nM

SMILES: C/C=C(/C)C(=O)O[C@@H]1CC(C)(C)C[C@H]2C3=CC[C@@H]4[C@@]5(C)CCC(=O)C(C)(C)[C@@H]5CC[C@@]4(C)[C@]3(C)CC[C@@]12C(=O)O [LANTADENE A]
IC50 (A549): 2840 nM

SMILES: C/C=C(/C)C(=O)O[C@@H]1CC(C)(C)C[C@H]2C3=CC[C@@H]4[C@@]5(C)CC[C@H](OC(=O)c6ccccc6F)C(C)(C)[C@@H]5CC[C@@]4(C)[C@]3(C)CC[C@@]12C(=O)O
IC50 (A549): 2040 nM

SMILES: CCCC(=O)O[C@H]1CC[C@]2(C)[C@H]3CC=C4[C@@H]5CC(C)(C)C[C@@H](OC(=O)C=C(C)C)[C@]5(C(=O)O)CC[C@@]4(C)[C@]3(C)CC[C@H]2C1(C)C
IC50 (A549): > 10000 nM

SMILES: C/C=C(/C)C(=O)O[C@@H]1CC(C)(C)C[C@H]2C3=CC[C@@H]4[C@@]5(C)CC[C@H](OC(=O)c6cccc(OC)c6)C(C)(C)[C@@H]5CC[C@@]4(C)[C@]3(C)CC[C@@]12C(=O)O
IC50 (A549): 1840 nM

SMILES: CC(C)=CC(=O)O[C@@H]1CC(C)(C)C[C@H]2C3=CC[C@@H]4[C@@]5(C)CCC(=O)C(C)(C)[C@@H]5CC[C@@]4(C)[C@]3(C)CC[C@@]12C(=O)O
IC50 (A549): 1190 nM

Reference: ChEMBL document CHEMBL3351683, “Synthesis of lantadene analogs with marked in vitro inhibition of lung adenocarcinoma and TNF-α induced nuclear factor-kappa B (NF-κB) activation” (Bioorg Med Chem Lett, 2014)
